Source: PubChem BioAssay (NCI)
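Five compound concentrations were applied to cells in 96-well plates for 48 hours; endpoints were derived by simple linear interpolation of the resulting dose-response curve. At the GI50, growth is halved. At the TGI there is no net growth.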

Key:
Experiment in all cases: DTP human tumour cell line panel, 48 h
[1] = test system: MCF7 breast
[2] = test system: SF-268 CNS
[3] = test system: MOLT-4 leukemia
[4] = test system: RXF 393 renal
[5] = test system: DU-145 prostate
[6] = test system: LOX IMVI melanoma
[7] = test system: OVCAR-8 ovarian
[8] = test system: SNB-75 CNS
[9] = test system: SK-MEL-28 melanoma
[10] = test system: U251 CNS
[11] = test system: UACC-62 melanoma
[12] = test system: HS 578T breast
[13] = test system: MDA-MB-435
[14] = test system: OVCAR-3 ovarian
[15] = test system: IGROV1 ovarian
[16] = test system: M14 melanoma
[17] = test system: CCRF-CEM leukemia
[18] = test system: MDA-MB-231 breast
[19] = test system: ACHN renal
[20] = test system: A549 NSCLC
[21] = test system: SN12C renal
[22] = test system: HOP-92 NSCLC
[23] = test system: SF-539 CNS
[24] = test system: SK-MEL-5 melanoma
[25] = test system: TK-10 renal
[26] = test system: RPMI-8226 leukemia
[27] = test system: HOP-62 NSCLC
[28] = test system: SNB-19 CNS
[29] = test system: SF-295 CNS
[30] = test system: NCI-H522 lung
[31] = test system: NCI-H460 lung
[32] = test system: CAKI-1 renal
[33] = test system: MALME-3M melanoma
[34] = test system: KM12 colon
[35] = test system: OVCAR-4 ovarian
[36] = test system: HCT-15 colon
[37] = test system: EKVX NSCLC
[38] = test system: NCI-H226 lung
[39] = test system: SK-MEL-2 melanoma
[40] = test system: OVCAR-5 ovarian
[41] = test system: SW-620 colon
[42] = test system: UACC-257 melanoma
[43] = test system: PC-3 prostate
[44] = test system: T-47D breast
[45] = test system: HT29 colon
[46] = test system: UO-31 renal
[47] = test system: NCI/ADR-RES ovarian
[48] = test system: A498 renal
[49] = test system: SR leukemia
[50] = test system: HCC-2998 colon
[51] = test system: 786-0 renal
[52] = test system: HL-60(TB) leukemia
[53] = test system: BT-549 breast
[54] = test system: HCT-116 colon
[55] = test system: SK-OV-3 ovarian
[56] = test system: K-562 leukemia

Cc1cn(-c2cc(NC(=O)c3cncc(C#Cc4cnc5ccc(OCCCS(C)(=O)=O)nn45)c3)cc(C(F)(F)F)c2)cn1
GI50 [1]: 0.31 µM
TGI [1]: 2.52 µM
GI50 [2]: 1.41 µM
TGI [2]: 6.98 µM
GI50 [3]: 0.635 µM
TGI [3]: 6.71 µM
GI50 [4]: 1.14 µM
TGI [4]: 3.32 µM
GI50 [5]: 1.18 µM
TGI [5]: > 100 µM
GI50 [6]: 0.875 µM
TGI [6]: 27.1 µM
GI50 [7]: 0.649 µM
TGI [7]: > 100 µM
GI50 [8]: 0.129 µM
TGI [8]: 1.76 µM
GI50 [9]: 1.51 µM
TGI [9]: > 100 µM
GI50 [10]: 2.67 µM
TGI [10]: > 100 µM
GI50 [11]: 0.706 µM
TGI [11]: > 100 µM
GI50 [12]: 1.43 µM
TGI [12]: 7.03 µM
GI50 [13]: 1.49 µM
TGI [13]: > 100 µM
GI50 [14]: 2.51 µM
TGI [14]: > 100 µM
GI50 [15]: 0.527 µM
TGI [15]: > 100 µM
GI50 [16]: 1.1 µM
TGI [16]: 49.4 µM
GI50 [17]: 0.389 µM
TGI [17]: 3.61 µM
GI50 [18]: 0.43 µM
TGI [18]: > 100 µM
GI50 [19]: 4.76 µM
TGI [19]: > 100 µM
GI50 [20]: 5.34 µM
TGI [20]: > 100 µM
GI50 [21]: 0.551 µM
TGI [21]: > 100 µM
GI50 [22]: 0.188 µM
TGI [22]: 0.713 µM
GI50 [23]: 0.552 µM
TGI [23]: 7.35 µM
GI50 [24]: 1.55 µM
TGI [24]: 10.5 µM
GI50 [25]: 3.21 µM
TGI [25]: > 100 µM
GI50 [26]: 2.55 µM
TGI [26]: 92.6 µM
GI50 [27]: 1.14 µM
TGI [27]: > 100 µM
GI50 [28]: 2.57 µM
TGI [28]: > 100 µM
GI50 [29]: 29.1 µM
TGI [29]: > 100 µM
GI50 [30]: 1.21 µM
TGI [30]: 3 µM
GI50 [31]: 3 µM
TGI [31]: > 100 µM
GI50 [32]: 0.501 µM
TGI [32]: 11.8 µM
GI50 [33]: 0.397 µM
TGI [33]: 5.11 µM
TGI [34]: 3.36 µM
GI50 [35]: 5.78 µM
TGI [35]: > 100 µM
GI50 [36]: 5.84 µM
TGI [36]: > 100 µM
GI50 [37]: 2.35 µM
TGI [37]: > 100 µM
GI50 [38]: 0.922 µM
TGI [38]: 49.1 µM
GI50 [39]: 0.427 µM
TGI [39]: 2.88 µM
GI50 [40]: 1.79 µM
TGI [40]: > 100 µM
GI50 [41]: 0.462 µM
TGI [41]: > 100 µM
GI50 [42]: 3.98 µM
TGI [42]: > 100 µM
GI50 [43]: 5.88 µM
TGI [43]: > 100 µM
GI50 [44]: 1.76 µM
TGI [44]: > 100 µM
GI50 [45]: 0.706 µM
TGI [45]: > 100 µM
GI50 [46]: 3.59 µM
TGI [46]: > 100 µM
GI50 [47]: > 100 µM
TGI [47]: > 100 µM
GI50 [48]: > 100 µM
TGI [48]: > 100 µM
GI50 [49]: 0.303 µM
TGI [49]: 4.82 µM
GI50 [50]: 1.94 µM
TGI [50]: > 100 µM
GI50 [51]: 2.01 µM
TGI [51]: > 100 µM
GI50 [52]: 0.401 µM
TGI [52]: 2.51 µM
GI50 [53]: 1.7 µM
TGI [53]: 10.6 µM
GI50 [54]: 0.317 µM
TGI [54]: 3.22 µM
GI50 [55]: > 100 µM
TGI [55]: > 100 µM
GI50 [56]: 0.128 µM
TGI [56]: > 100 µM
